Measurements: the supplement of paper PMC13380429

Tests used:
Conditions in all cases: 72 h
Calu-3 [1] = assay: cell viability relative to DMSO; higher = less toxic
Caco-2 [2] = assay: as above
HepG2 [3] = assay: as above
U2OS [4] = assay: as above
Calu-3 [5] = assay: relative viability EC50 (midpoint between 100% and the lowest measured viability); higher = less toxic
Caco-2 [6] = assay: as above
HepG2 [7] = assay: as above
U2OS [8] = assay: as above
Calu-3 [9] = assay: drug sensitivity score (DSS) for viability; higher = more toxic; extreme values may be limits of the assay
Caco-2 [10] = assay: as above
HepG2 [11] = assay: as above
U2OS [12] = assay: as above
Vero E6 [13] = assay: cell viability relative to DMSO; higher = less toxic
Vero E6 [14] = assay: relative viability EC50 (midpoint between 100% and the lowest measured viability); higher = less toxic
Vero E6 [15] = assay: drug sensitivity score (DSS) for viability; higher = more toxic; extreme values may be limits of the assay

| Structure (SMILES) | cell viability (Calu-3 [1]; 1 nM) [%] | cell viability (Calu-3 [1]; 10 nM) [%] | cell viability (Calu-3 [1]; 100 nM) [%] | cell viability (Calu-3 [1]; 1000 nM) [%] | cell viability (Calu-3 [1]; 10000 nM) [%] | cell viability (Caco-2 [2]; 1 nM) [%] | cell viability (Caco-2 [2]; 10 nM) [%] | cell viability (Caco-2 [2]; 100 nM) [%] | cell viability (Caco-2 [2]; 1000 nM) [%] | cell viability (Caco-2 [2]; 10000 nM) [%] | cell viability (HepG2 [3]; 1 nM) [%] | cell viability (HepG2 [3]; 10 nM) [%] | cell viability (HepG2 [3]; 100 nM) [%] | cell viability (HepG2 [3]; 1000 nM) [%] | cell viability (HepG2 [3]; 10000 nM) [%] | cell viability (U2OS [4]; 1 nM) [%] | cell viability (U2OS [4]; 10 nM) [%] | cell viability (U2OS [4]; 100 nM) [%] | cell viability (U2OS [4]; 1000 nM) [%] | cell viability (U2OS [4]; 10000 nM) [%] | relative viability EC50 (Calu-3 [5]) [µM] | relative viability EC50 (Caco-2 [6]) [µM] | relative viability EC50 (HepG2 [7]) [µM] | relative viability EC50 (U2OS [8]) [µM] | drug sensitivity score (Calu-3 [9]) | drug sensitivity score (Caco-2 [10]) | drug sensitivity score (HepG2 [11]) | drug sensitivity score (U2OS [12]) | cell viability (Vero E6 [13]; 1 nM) [%] | cell viability (Vero E6 [13]; 10 nM) [%] | cell viability (Vero E6 [13]; 100 nM) [%] | cell viability (Vero E6 [13]; 1000 nM) [%] | cell viability (Vero E6 [13]; 10000 nM) [%] | relative viability EC50 (Vero E6 [14]) [µM] | drug sensitivity score (Vero E6 [15]) |
| --- | --- | --- | --- | --- | --- | --- | --- | --- | --- | --- | --- | --- | --- | --- | --- | --- | --- | --- | --- | --- | --- | --- | --- | --- | --- | --- | --- | --- | --- | --- | --- | --- | --- | --- | --- |
| CC[C@H](C)[C@H](NC(=O)[C@H](Cc1ccc(O)cc1)NC(=O)[C@@H](NC(=O)[C@H](CCCNC(=N)N)NC(=O)[C@@H](N)CC(=O)O)C(C)C)C(=O)N[C@@H](Cc1c[nH]cn1)C(=O)N1CCC[C@H]1C(=O)O [TXA127] | 95.2 | 90.6 | 97.9 | 89.2 | 105 | 104 | 110 | 98.2 | 99.4 | 89.4 | 96.2 | 105 | 89.3 | 104 | 92.4 | 98.9 | 98.7 | 99.1 | 93.3 | 96.9 | > 10 | > 10 | > 10 | > 10 | 0 | 0 | 0 | 0 | – | – | – | – | – | – | – |
| CCCCCCCCCCC(C)(C)C(=O)Nc1c(OC)cc(OC)cc1OC [CI-976] | 101 | 97.6 | 95.5 | 112 | 99.3 | 98.7 | 97.9 | 91.7 | 99.5 | 90.2 | 105 | 103 | 103 | 102 | 96.5 | 100 | 101 | 98.9 | 103 | 97.9 | > 10 | > 10 | > 10 | > 10 | 0 | 0 | 0 | 0 | – | – | – | – | – | – | – |
| CO[C@@H]1COCC[C@@H]1N[C@@H]1CC[C@@](C(=O)N2CCc3ncc(C(F)(F)F)cc3C2)(C(C)C)C1 [MK-0812] | – | – | – | – | – | 110 | 95.7 | 99 | 113 | 97.5 | 96.5 | 82.9 | 90.3 | 94.7 | 98.4 | 98.8 | 106 | 101 | 106 | 103 | – | > 10 | > 10 | > 10 | – | 0 | 0 | 0 | 102 | 100 | 111 | 106 | 97.2 | > 10 | 0 |
| COc1cc(Nc2c(C#N)cnc3cc(OCCCN4CCN(C)CC4)c(OC)cc23)c(Cl)cc1Cl [bosutinib] | – | – | – | – | – | 95.2 | 99.1 | 107 | 87.1 | 42.6 | 105 | 101 | 101 | 81.6 | 15.9 | 95.4 | 101 | 102 | 97.1 | 22.7 | – | 1.64 | 1.66 | 2.88 | – | 5.2 | 7.6 | 4.7 | 98.7 | 100 | 99.9 | 72.5 | 15.2 | 1.34 | 8.6 |
| Cc1nc(-c2ccc(OCC(C)C)c(C#N)c2)sc1C(=O)O [febuxostat] | – | – | – | – | – | 93.5 | 94 | 104 | 98.6 | 96.1 | 112 | 96.8 | 107 | 96.8 | 94.1 | 92.8 | 99.9 | 97.2 | 102 | 106 | – | > 10 | > 10 | > 10 | – | 0 | 0 | 0 | 94.3 | 98.5 | 100 | 101 | 96.4 | > 10 | 0 |
| O=S(=O)(N[C@H]1CC[C@@](c2cc(F)ccc2F)(S(=O)(=O)c2ccc(Cl)cc2)CC1)C(F)(F)F [MRK-560] | 96.2 | 91.2 | 104 | 97.7 | 102 | 88.8 | 99.1 | 94.5 | 94.7 | 95.6 | 98.5 | 91.2 | 106 | 81.5 | 86.4 | 99.9 | 102 | 100 | 101 | 95.9 | > 10 | > 10 | > 10 | > 10 | 0 | 0 | 2.1 | 0 | – | – | – | – | – | – | – |
| NC(=O)Nc1sc(-c2ccc(F)cc2)cc1C(N)=O [TPCA-1] | 98.1 | 104 | 97.7 | 96.4 | 75.9 | 95.6 | 99.4 | 94.2 | 76.6 | 25.8 | 99.5 | 95.8 | 94.2 | 80.6 | 49.8 | 100 | 104 | 95.9 | 94.6 | 45.3 | > 10 | 1.44 | 1.3 | 2.35 | 1.4 | 7.2 | 4.7 | 3.8 | 104 | 98.3 | 101 | 98.2 | 52 | – | 2.7 |
| Cc1ccc(C(=O)c2ccc(CC(=O)O)n2C)cc1 [tolmetin] | 88.7 | 97.8 | 92.4 | 90.9 | 96.6 | 90.4 | 94.6 | 94.6 | 90.7 | 105 | 109 | 109 | 100 | 108 | 93.7 | 96.8 | 102 | 92.4 | 97.8 | 102 | > 10 | > 10 | > 10 | > 10 | 0 | 0 | 0 | 0 | – | – | – | – | – | – | – |
| NS(=O)(=O)c1ccc(-n2nc(C(F)(F)F)cc2-c2ccc(Cl)cc2)cc1 [SC-236] | – | – | – | – | – | 102 | 92 | 86.3 | 96.6 | 82.8 | 111 | 99.5 | 101 | 101 | 103 | 99.1 | 96 | 98.1 | 102 | 103 | – | > 10 | > 10 | > 10 | – | 0.7 | 0 | 0 | 94.7 | 93.3 | 91.6 | 91.6 | 100 | > 10 | 0 |
| Cc1nc[nH]c1CCN [4-methylhistamine] | 89.5 | 101 | 107 | 88 | 99.2 | 91.9 | 95.1 | 99.2 | 100 | 101 | 98.1 | 98.6 | 88.5 | 96.2 | 91.9 | 95.1 | 99.5 | 104 | 98 | 104 | > 10 | > 10 | > 10 | > 10 | 0 | 0 | 0 | 0 | – | – | – | – | – | – | – |
| O=C(Nc1nc2ccc(NC(=O)C34CC5CC(CC(C5)C3)C4)cc2s1)c1ccccc1 [NVP-231] | 100 | 96.1 | 91.8 | 93.1 | 50.3 | 95.6 | 89.2 | 106 | 86.3 | 43.5 | 83.9 | 98.2 | 91.6 | 74.1 | 35.4 | 100 | 93.8 | 99.3 | 91.9 | 49.6 | – | 1.58 | 1.24 | 1.93 | 3.8 | 5.2 | 6.4 | 4 | 101 | 96.1 | 90.3 | 93.9 | 38.4 | 2.34 | 4.4 |
| OCC[N+]12CN3CN(CN(C3)C1)C2 [Y-11] | 97.6 | 90.1 | 98 | 102 | 99.1 | 102 | 108 | 97.2 | 101 | 99.2 | 97.6 | 90.5 | 102 | 102 | 110 | – | – | – | – | – | > 10 | > 10 | > 10 | – | 0 | 0 | 0 | – | 102 | 99.1 | 106 | 96.2 | 100 | > 10 | 0 |
| CCCC[C@@H](NC(=O)[C@@H](Cc1cn(C(=O)OC)c2ccccc12)NC(=O)[C@H](CC(C)(C)C)NC(=O)N1[C@H](C)CCC[C@@H]1C)C(=O)O [BQ-788] | 98.9 | 98.3 | 112 | 106 | 97.2 | 102 | 104 | 96.1 | 106 | 104 | 89.9 | 88.1 | 104 | 107 | 101 | 97.1 | 90.1 | 95.8 | 105 | 99.8 | > 10 | > 10 | > 10 | > 10 | 0 | 0 | 0 | 0 | – | – | – | – | – | – | – |
| CC(=O)c1cc2c(o1)C(=O)c1ccccc1C2=O [napabucasin] | 124 | 109 | 101 | 106 | 56.4 | 103 | 98.5 | 95.3 | 55.8 | 0.5 | 102 | 109 | 97.1 | -0.9 | -0.3 | 102 | 98.5 | 102 | 98.9 | -0.4 | – | 1.13 | 0.291 | 3.07 | 1.8 | 10.7 | 18.4 | 5.8 | 88.7 | 99.5 | 89.6 | 88.8 | -0.4 | 2.24 | 7.4 |
| CN(c1ncccc1CNc1nc(Nc2ccc3c(c2)CC(=O)N3)ncc1C(F)(F)F)S(C)(=O)=O | 108 | 104 | 100 | 108 | 39.5 | 105 | 111 | 107 | 91.5 | 53.1 | 108 | 113 | 108 | 74.1 | 7.9 | – | – | – | – | – | 3.74 | – | 1.46 | – | 2.8 | 3.9 | 9 | – | 98.5 | 101 | 87.8 | 83.9 | 41.5 | 1.64 | 5.1 |
| O=C(O)C1=CCNCC1 [isoguvacine] | 105 | 99.1 | 104 | 94.5 | 94.4 | 106 | 99.5 | 108 | 106 | 98.7 | 91 | 98.5 | 91.9 | 96.1 | 95 | – | – | – | – | – | > 10 | > 10 | > 10 | – | 0 | 0 | 0 | – | 101 | 103 | 100 | 99.4 | 98.2 | > 10 | 0 |
